From US11446282B2, “Methods of treating mixed dyslipidemia and hypertriglycertdemia” (Kowa Company, Ltd., priority 2017, dated 2022)

System: dyslipidemic patients with renal impairment
Assay: Example 3 phase III 52-week trial: cholesterol in lipoprotein subclasses by HPLC
Type: in vivo, human
Conditions: for Small LDL-C Week 52 (LOCF) / VLDL-C % Change from baseline at Week 52 (LOCF) / VLDL-C Week 52 (LOCF) / Very large HDL-C % Change from baseline at Week 52 (LOCF) / Very large HDL-C Week 52 (LOCF) / Very small HDL-C % Change from baseline at Week 52 (LOCF) / Very small HDL-C Week 52 (LOCF) / Very small LDL-C % Change from baseline at Week 52 (LOCF) / Very small LDL-C Week 52 (LOCF) / CM-C % Change from baseline at Week 52 (LOCF) / CM-C Week 52 (LOCF) / Large HDL-C % Change from baseline at Week 52 (LOCF) / Large HDL-C Week 52 (LOCF) / Large LDL-C % Change from baseline at Week 52 (LOCF) / Large LDL-C Week 52 (LOCF) / Medium HDL-C % Change from baseline at Week 52 (LOCF) / Medium HDL-C Week 52 (LOCF) / Medium LDL-C % Change from baseline at Week 52 (LOCF) / Medium LDL-C Week 52 (LOCF) / Small HDL-C % Change from baseline at Week 52 (LOCF) / Small HDL-C Week 52 (LOCF) / Small LDL-C % Change from baseline at Week 52 (LOCF): 0.2 (0.4) mg/day
Description: This was a multicenter, single-arm, open-label, phase III trial. The inclusion criteria were as follows: (1) patients with dyslipidemia aged >20 years at the time of informed consent; (2) men and postmenopausal women; (3) fasting serum TG≥1.70 mmol/L (150 mg/dL) at two consecutive measurements during screening; and (4) patients who followed dietary and physical exercise guidance for >12 weeks before enrollment.
The major exclusion criteria were as follows: (1) patients with fasting serum TG≥5.65 mmol/L (500 mg/dL) during screening; (2) patients with poorly controlled diabetes mellitus (hemoglobin A1c [HbA1c]≥10.5%); (3) patients with concurrent poorly controlled thyroid disease; (4) men with serum creatinine ≥2.5 mg/dL and women with serum creatinine ≥2.0 mg/dL during screening who were already on statin therapy; (5) patients with eGFR<45 mL/min/1.73 m^2 during screening who were already on statin therapy; (6) patients with CK>5ULN (270 IU/L for men, 150 IU/L for women) during screening who were already on statin therapy; (7) patients with serious liver disease (cirrhosis Child-Pugh Class B or higher); (8) patients with gallstones or serious biliary tract disease; (9) patients who had suffered an acute myocardial infarction or stroke within three months before informed consent; and (10) patients with New York Heart Association class III or IV heart failure.
During the screening period (8 weeks prior to treatment initiation), tests were performed twice to determine patient eligibility. Thereafter, eligible patients orally received pemafibrate 0.2 mg/day (twice daily) for 52 weeks. From week 12 of the treatment period onwards, the investigators were instructed that the dose could be increased from 0.2 mg/day to 0.4 mg/day (twice daily) if there was an inadequate response to the initial dose based on fasting serum TG levels ≥1.70 mmol/L (150 mg/dL). Fasting blood and urine samples were collected at each visit. Blood and urine sample in patients with hemodialysis were collected just before dialysis. LDL-C levels were measured using the direct method. […]
The primary efficacy endpoint was the percent change in fasting serum TG from baseline to the last evaluation point. The primary safety endpoints were the incidence of an AE or ADR occurring after drug administration during the study. Secondary efficacy endpoints included percent changes in lipid variables and changes in inflammation variables at week 52 [using the last-observation-carried-forward (LOCF)]. Secondary safety endpoints included changes in the levels of aspartate aminotransferase (AST), ALT, -GT, ALP, serum creatinine, eGFR, and CK at week 52. Each baseline value was defined as (1) the mean of the corresponding values in the first and second tests at the screening examination and at week 0 of the treatment period for fasting serum TG, HDL-C, total cholesterol (TC), LDL-C, and non-HDL-C; and (2) the value at week 0 of the treatment period for the other secondary variables.
The numbers of patients with AEs and ADRs and the incidences of AEs and ADRs were calculated in the analysis of primary safety endpoints. For the secondary efficacy endpoints, one-sample t-tests or Wilcoxon signed-rank tests [for high-sensitivity C-reactive protein (hsCRP) and IL-1] were performed. The secondary safety endpoints were analyzed with Wilcoxon signed-rank tests. A two-sided significance level of 0.05 was used. SAS v. 9.3 (SAS Institute Inc., Cary, N.C., USA) was used for these analyses. Where indicated, the data are expressed as means±standard deviation (SD).

[1] = lowest eGFR group compared with other groups

CC[C@@H](Oc1cccc(CN(CCCOc2ccc(OC)cc2)c2nc3ccccc3o2)c1)C(=O)O [Pemafibrate, (2R)-2-[3-({1,3-benzoxazol-2-yl[3-(4-methoxyphenoxy)propyl]amino}methyl)phenoxy]butanoic acid]
Small LDL-C Week 52 (LOCF) (eGFR G2 (≥60 and <90)): 0.522 mmol/L | VLDL-C % Change from baseline at Week 52 (LOCF) (eGFR G2 (≥60 and <90)): −25.3% | VLDL-C Week 52 (LOCF) (eGFR G2 (≥60 and <90)): 0.834 mmol/L | Very large HDL-C % Change from baseline at Week 52 (LOCF) (eGFR G2 (≥60 and <90)): 4.1% | Very large HDL-C Week 52 (LOCF) (eGFR G2 (≥60 and <90)): 0.048 mmol/L | Very small HDL-C % Change from baseline at Week 52 (LOCF) (eGFR G2 (≥60 and <90)): 30.9% | Very small HDL-C Week 52 (LOCF) (eGFR G2 (≥60 and <90)): 0.181 mmol/L | Very small LDL-C % Change from baseline at Week 52 (LOCF) (eGFR G2 (≥60 and <90)): −9.7% | Very small LDL-C Week 52 (LOCF) (eGFR G2 (≥60 and <90)): 0.211 mmol/L | CM-C % Change from baseline at Week 52 (LOCF) (eGFR G3a-G3b (≥30 and <60)): −67.7% | CM-C Week 52 (LOCF) (eGFR G3a-G3b (≥30 and <60)): 0.038 mmol/L | Large HDL-C % Change from baseline at Week 52 (LOCF) (eGFR G3a-G3b (≥30 and <60)): −4.9% | Large HDL-C Week 52 (LOCF) (eGFR G3a-G3b (≥30 and <60)): 0.124 mmol/L | Large LDL-C % Change from baseline at Week 52 (LOCF) (eGFR G3a-G3b (≥30 and <60)): 59.1% | Large LDL-C Week 52 (LOCF) (eGFR G3a-G3b (≥30 and <60)): 0.720 mmol/L | Medium HDL-C % Change from baseline at Week 52 (LOCF) (eGFR G3a-G3b (≥30 and <60)): 20.6% | Medium HDL-C Week 52 (LOCF) (eGFR G3a-G3b (≥30 and <60)): 0.447 mmol/L | Medium LDL-C % Change from baseline at Week 52 (LOCF) (eGFR G3a-G3b (≥30 and <60)): 18.9% | Medium LDL-C Week 52 (LOCF) (eGFR G3a-G3b (≥30 and <60)): 1.127 mmol/L | Small HDL-C % Change from baseline at Week 52 (LOCF) (eGFR G3a-G3b (≥30 and <60)): 24.6% | Small HDL-C Week 52 (LOCF) (eGFR G3a-G3b (≥30 and <60)): 0.467 mmol/L | Small LDL-C % Change from baseline at Week 52 (LOCF) (eGFR G3a-G3b (≥30 and <60)): −18.9% | Small LDL-C Week 52 (LOCF) (eGFR G3a-G3b (≥30 and <60)): 0.501 mmol/L | VLDL-C % Change from baseline at Week 52 (LOCF) (eGFR G3a-G3b (≥30 and <60)): −22.9% | VLDL-C Week 52 (LOCF) (eGFR G3a-G3b (≥30 and <60)): 0.892 mmol/L | Very large HDL-C % Change from baseline at Week 52 (LOCF) (eGFR G3a-G3b (≥30 and <60)): 5.9% | Very large HDL-C Week 52 (LOCF) (eGFR G3a-G3b (≥30 and <60)): 0.051 mmol/L | Very small HDL-C % Change from baseline at Week 52 (LOCF) (eGFR G3a-G3b (≥30 and <60)): 19.7% | Very small HDL-C Week 52 (LOCF) (eGFR G3a-G3b (≥30 and <60)): 0.180 mmol/L | Very small LDL-C % Change from baseline at Week 52 (LOCF) (eGFR G3a-G3b (≥30 and <60)): −15.8% | Very small LDL-C Week 52 (LOCF) (eGFR G3a-G3b (≥30 and <60)): 0.207 mmol/L | CM-C % Change from baseline at Week 52 (LOCF) (eGFR G4-G5 (<30)): −79.4% | CM-C Week 52 (LOCF) (eGFR G4-G5 (<30)): 0.039 mmol/L | Large HDL-C % Change from baseline at Week 52 (LOCF) (eGFR G4-G5 (<30)): 5.2% | Large HDL-C Week 52 (LOCF) (eGFR G4-G5 (<30)): 0.096 mmol/L | Large LDL-C % Change from baseline at Week 52 (LOCF) (eGFR G4-G5 (<30)): 39.9% | Large LDL-C Week 52 (LOCF) (eGFR G4-G5 (<30)): 0.689 mmol/L | Medium HDL-C % Change from baseline at Week 52 (LOCF) (eGFR G4-G5 (<30)): 53.2% | Medium HDL-C Week 52 (LOCF) (eGFR G4-G5 (<30)): 0.336 mmol/L | Medium LDL-C % Change from baseline at Week 52 (LOCF) (eGFR G4-G5 (<30)): −2.8% | Medium LDL-C Week 52 (LOCF) (eGFR G4-G5 (<30)): 0.920 mmol/L | Small HDL-C % Change from baseline at Week 52 (LOCF) (eGFR G4-G5 (<30)): 39.1% | Small HDL-C Week 52 (LOCF) (eGFR G4-G5 (<30)): 0.395 mmol/L | Small LDL-C % Change from baseline at Week 52 (LOCF) (eGFR G4-G5 (<30)): −38.6% | Small LDL-C Week 52 (LOCF) (eGFR G4-G5 (<30)): 0.381 mmol/L | VLDL-C % Change from baseline at Week 52 (LOCF) (eGFR G4-G5 (<30)): −28.7% | VLDL-C Week 52 (LOCF) (eGFR G4-G5 (<30)): 1.076 mmol/L | Very large HDL-C % Change from baseline at Week 52 (LOCF) (eGFR G4-G5 (<30)): 17.1% | Very large HDL-C Week 52 (LOCF) (eGFR G4-G5 (<30)): 0.044 mmol/L | Very small HDL-C % Change from baseline at Week 52 (LOCF) (eGFR G4-G5 (<30)): 23.5% | Very small HDL-C Week 52 (LOCF) (eGFR G4-G5 (<30)): 0.155 mmol/L | Very small LDL-C % Change from baseline at Week 52 (LOCF) (eGFR G4-G5 (<30)): −33.4% | Very small LDL-C Week 52 (LOCF) (eGFR G4-G5 (<30)): 0.158 mmol/L | high-density lipoprotein cholesterol change (observation) (lowest eGFR group): increase | VLDL-C change (observation) [1]: greatest reduction | chylomicron (CM-C) change (observation) [1]: greatest reduction | small low-density lipoprotein cholesterol change (observation) [1]: greatest reduction
